This passage reports IC50 results from US20080119513A1, “Sulfonamide Derivative Selectively Inhibiting Mmp-13” (priority 2004, published 2008).

Type in all cases: biochemical
The target in assay [1] is T1, MMP-13 (Homo sapiens, UniProt P45452).
T1 construct: catalytic domain (^104Tyr˜^267Gly) was amplified with RT-PCR; His-tag; enterokinase digestion-site
The assay is described as follows: Assay for inhibitory activities on MMPs (fluorogenic peptide substrate), MMP-13. The gist of the method: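 Catalytic domain cloned from IL-1/TNF-stimulated SW1353 cells, His-tagged and expressed in E. coli, then refolded from urea. Activity read by fluorescence on the MOCAc peptide substrate. IC50 taken from % inhibition = {1-(A-B)/(C-D)}×100, with blanks lacking enzyme and/or inhibitor.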

Assay [2] addresses T2, MMP-8 (Homo sapiens, UniProt P22894).
T2 construct: In regard to MMP-8, catalytic domain (^99Phe˜^262Gly) was amplified with PCR; His-tag; enterokinase digestion-site
The assay is described as follows: Assay for inhibitory activities on MMPs (fluorogenic peptide substrate), MMP-8. The gist of the method: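 Human MMP-8 catalytic domain (Phe99–Gly262), His-tagged, E. coli-expressed, urea-solubilised, refolded. Fluorogenic substrate MOCAc-Pro-Leu-Gly-Leu-A2Pr(DNP)-Ala-Arg-NH2; fluorescence read with enzyme/inhibitor, substrate/inhibitor, enzyme-only and substrate-only wells. % inhibition = {1-(A−B)/(C−D)}×100; IC50 is concentration giving 50% inhibition.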

Assay [3] deals with MMP-9 (Homo sapiens, UniProt P14780). The experiment in a line: Assay for inhibitory activities on MMPs (fluorogenic peptide substrate), MMP-9. The gist of the method:
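ProMMP-9 purified from TPA-stimulated HT1080 cells and activated with TPCK-trypsin, assayed with fluorogenic MOCAc-Pro-Leu-Gly-Leu-A2Pr(DNP)-Ala-Arg-NH2. Percent inhibition from fluorescence of reactions with and without enzyme and inhibitor; IC50 as concentration giving 50% inhibition.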

Assay [4] addresses T3, MMP-2 (Homo sapiens, UniProt P08253).
T3 sequence (P08253 110-660): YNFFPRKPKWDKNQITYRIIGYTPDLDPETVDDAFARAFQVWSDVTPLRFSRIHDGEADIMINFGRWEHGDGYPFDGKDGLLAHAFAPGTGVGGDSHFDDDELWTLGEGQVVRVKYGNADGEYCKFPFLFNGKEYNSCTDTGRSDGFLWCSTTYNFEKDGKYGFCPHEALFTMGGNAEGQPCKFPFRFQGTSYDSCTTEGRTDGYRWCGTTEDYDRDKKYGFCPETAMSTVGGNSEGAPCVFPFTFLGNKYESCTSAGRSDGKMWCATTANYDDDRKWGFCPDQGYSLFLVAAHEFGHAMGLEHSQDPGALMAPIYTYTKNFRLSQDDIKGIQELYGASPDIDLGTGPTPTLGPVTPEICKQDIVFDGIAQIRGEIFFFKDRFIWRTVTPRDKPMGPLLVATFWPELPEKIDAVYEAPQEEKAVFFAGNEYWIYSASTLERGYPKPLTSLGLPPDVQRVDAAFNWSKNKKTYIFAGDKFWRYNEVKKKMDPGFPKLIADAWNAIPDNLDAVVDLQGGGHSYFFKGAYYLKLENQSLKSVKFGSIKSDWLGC
The assay is described as follows: Assay for inhibitory activities on MMPs (fluorogenic peptide substrate), MMP-2. The gist of the method: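 Human MMP-2 activity measured with fluorogenic MOCAc-Pro-Leu-Gly-Leu-A2Pr(DNP)-Ala-Arg-NH2 substrate. Percent inhibition derived from fluorescence with and without enzyme and inhibitor, corrected for substrate and inhibitor background. IC50 taken as concentration giving 50% inhibition.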

For assay [5], the target named is T4, MMP-12 (Homo sapiens, UniProt P39900).
T4 construct: In regard to MMP-12, catalytic domain (^100Phe˜^263Gly) was amplified with RT-PCR; His-tag; enterokinase digestion-site
T4 sequence (P39900 100-263): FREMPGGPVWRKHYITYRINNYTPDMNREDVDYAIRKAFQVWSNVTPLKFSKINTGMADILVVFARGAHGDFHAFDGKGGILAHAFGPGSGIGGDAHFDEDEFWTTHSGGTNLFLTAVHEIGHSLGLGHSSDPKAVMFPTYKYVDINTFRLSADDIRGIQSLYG
The assay is described as follows: Assay for inhibitory activities on MMPs (fluorogenic peptide substrate), MMP-12. The gist of the method: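 Refolded His-tagged human MMP-12 catalytic domain (Phe100–Gly263) expressed in E. coli, assayed with fluorogenic substrate MOCAc-Pro-Leu-Gly-Leu-A2Pr(DNP)-Ala-Arg-NH2. Percent inhibition calculated from fluorescence with and without enzyme and inhibitor, corrected for inhibitor-only and substrate-only blanks; IC50 is concentration giving 50% inhibition.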

Each structure is given as a SMILES string.

Sequence of MMP-9 (P14780 107-707): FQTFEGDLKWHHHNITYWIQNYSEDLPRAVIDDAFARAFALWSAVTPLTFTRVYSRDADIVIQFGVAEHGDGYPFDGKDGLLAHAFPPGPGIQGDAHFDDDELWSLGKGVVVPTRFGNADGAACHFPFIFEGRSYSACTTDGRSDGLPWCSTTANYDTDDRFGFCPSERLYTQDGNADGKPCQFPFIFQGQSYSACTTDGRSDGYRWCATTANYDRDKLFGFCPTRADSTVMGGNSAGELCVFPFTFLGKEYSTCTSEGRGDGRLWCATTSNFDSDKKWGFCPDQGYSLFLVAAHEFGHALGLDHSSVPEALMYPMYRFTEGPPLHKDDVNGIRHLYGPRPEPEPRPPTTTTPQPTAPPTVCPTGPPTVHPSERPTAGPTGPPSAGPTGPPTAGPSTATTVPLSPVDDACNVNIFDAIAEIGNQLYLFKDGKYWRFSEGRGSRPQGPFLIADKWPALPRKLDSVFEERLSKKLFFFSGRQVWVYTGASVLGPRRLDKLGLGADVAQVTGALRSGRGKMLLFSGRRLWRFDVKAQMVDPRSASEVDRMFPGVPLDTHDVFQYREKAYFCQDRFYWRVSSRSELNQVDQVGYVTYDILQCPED
T2 sequence (P22894 99-262): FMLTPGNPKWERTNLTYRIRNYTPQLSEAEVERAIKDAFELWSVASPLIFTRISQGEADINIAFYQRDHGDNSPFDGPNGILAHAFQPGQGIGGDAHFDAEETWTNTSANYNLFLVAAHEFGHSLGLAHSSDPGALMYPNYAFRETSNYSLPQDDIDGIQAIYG

What is called IC50 is the concentration that gives 50% inhibition. For `CCC(C)[C@H](NS(=O)(=O)c1ccc(-c2ccc(NC(=O)c3ccc4ccccc4c3)cc2)cc1)C(=O)O` (stereo partly shown) [VI-43], the IC50 in assay [1] is 13.7 nM; in assay [2], 63.2 nM; in assay [3], greater than 10000 nM; in assay [4] it was 243 nM; in assay [5], 66.9 nM.

Turning to `O=C(O)[C@H](Cc1ccccc1)NS(=O)(=O)c1ccc(-c2ccc(C#Cc3ccc4ccccc4c3)cc2)cc1` [III-12], the half-maximal inhibitory concentration (IC50) is 35.7 nM in assay [1]; 270 nM in assay [2]; greater than 10000 nM in assay [3]; 8990 nM in assay [4]; 888 nM in assay [5].

For `COc1ccc(C(=O)Nc2ccc(-c3ccc(S(=O)(=O)N[C@H](Cc4ccccc4)C(=O)O)cc3)cc2)cc1` [VI-3], the IC50 in assay [1] was 32.6 nM; in assay [2], greater than 10000 nM; in assay [3] it was greater than 10000 nM; in assay [4], 239 nM; in assay [5] it was 1100 nM.

Regarding `COc1ccc2cc(C#Cc3ccc(-c4ccc(S(=O)(=O)N[C@H](C(=O)O)C(C)C)cc4)cc3)ccc2c1` [III-21], the half-maximal inhibitory concentration (IC50) in assay [1] was 5.73 nM; in assay [2], 36.9 nM; in assay [3], greater than 10000 nM; in assay [4] it was greater than 4000 nM; in assay [5] it was 58.3 nM.

As to `COCC(NS(=O)(=O)c1ccc(-c2ccc(C#Cc3ccc4cc(OC)ccc4c3)cc2)cc1)C(=O)O` (stereo not shown) [III-50], the IC50 in assay [1] is 13.8 nM; in assay [2], 243 nM; in assay [3], greater than 10000 nM; in assay [4] it was 50.6 nM; in assay [5], 125 nM.

In the case of `CC(C)[C@@H](NS(=O)(=O)c1ccc(-c2ccc(COc3ccc4ccccc4c3)cc2)cc1)C(=O)O` [VII-12], the IC50 in assay [1] was 26.2 nM; in assay [2] it was 140 nM; in assay [3], greater than 10000 nM; in assay [4], 3720 nM; in assay [5], 95.7 nM.

As for `O=C(Nc1ccc(-c2ccc(S(=O)(=O)N[C@H](Cc3ccccc3)C(=O)O)cc2)cc1)c1cc2ccccc2s1` [VI-47], the half-maximal inhibitory concentration (IC50) is 136 nM in assay [1]; greater than 10000 nM in assay [2]; greater than 10000 nM in assay [3]; greater than 10000 nM in assay [4]; greater than 10000 nM in assay [5].

Turning to `O=C(Nc1ccc(-c2ccc(S(=O)(=O)N[C@H](Cc3ccccc3)C(=O)O)cc2)cc1)c1ccc(F)cc1` [VI-6], the IC50 in assay [1] is 39.4 nM; in assay [2], greater than 10000 nM; in assay [3], greater than 10000 nM; in assay [4], 235 nM; in assay [5], greater than 10000 nM.

On to `COc1ccc2cc(C(=O)Nc3ccc(-c4ccc(S(=O)(=O)N[C@H](Cc5ccccc5)C(=O)O)cc4)cc3)ccc2c1` [VI-45], for which the IC50 is 61.3 nM in assay [1]; greater than 10000 nM in assay [2]; greater than 10000 nM in assay [3]; greater than 10000 nM in assay [4]; greater than 10000 nM in assay [5].

As for `O=C(O)[C@@H](CC1CCCCC1)NS(=O)(=O)c1ccc(-c2ccc(C#Cc3ccc4ccccc4c3)cc2)cc1` [III-15], the half-inhibitory concentration (IC50) in assay [1] was 225 nM; in assay [2], 7680 nM; in assay [3] it was greater than 10000 nM; in assay [4], greater than 10000 nM; in assay [5] it was greater than 10000 nM.

With `CC(C)[C@@H](NS(=O)(=O)c1ccc(-c2ccc(C#Cc3ccc4ccccc4c3)cc2)cc1)C(=O)O` [III-4], the IC50 is 4.54 nM in assay [1]; 40.1 nM in assay [2]; greater than 10000 nM in assay [3]; 72.6 nM in assay [4]; 47.4 nM in assay [5].

For `O=C(/C=C/c1ccccc1)Nc1ccc(-c2ccc(S(=O)(=O)N[C@H](Cc3ccccc3)C(=O)O)cc2)cc1` [VI-9], the IC50 in assay [1] was 44.6 nM; in assay [2], greater than 10000 nM; in assay [3], greater than 10000 nM; in assay [4], 178 nM; in assay [5], greater than 10000 nM.

As to `COc1ccc2cc(C#Cc3ccc(-c4ccc(S(=O)(=O)N[C@H](CSC)C(=O)O)cc4)cc3)ccc2c1` [III-49], the concentration for half-maximal inhibition (IC50) in assay [1] is 50.8 nM; in assay [2], 109 nM; in assay [3], greater than 10000 nM; in assay [4], greater than 10000 nM; in assay [5], 118 nM.

Turning to `O=C(C#Cc1ccccc1)Nc1ccc(-c2ccc(S(=O)(=O)N[C@H](Cc3ccccc3)C(=O)O)cc2)cc1` [VI-13], the IC50 was 27.2 nM in assay [1]; 641 nM in assay [2]; greater than 10000 nM in assay [3]; 167 nM in assay [4]; 503 nM in assay [5].

With `CCC(C)[C@H](NS(=O)(=O)c1ccc(-c2ccc(C#Cc3ccc4cc(OC)ccc4c3)cc2)cc1)C(=O)O` (stereo partly shown) [III-23], the concentration for half-maximal inhibition (IC50) was 16.3 nM in assay [1]; 41.6 nM in assay [2]; greater than 10000 nM in assay [3]; 602 nM in assay [4]; 50.7 nM in assay [5].

Regarding `COc1ccc2cc(C#Cc3ccc(-c4ccc(S(=O)(=O)N[C@H](CC(C)C)C(=O)O)cc4)cc3)ccc2c1` [III-22], the IC50 in assay [1] is 55.7 nM; in assay [2], 5710 nM; in assay [3], greater than 10000 nM; in assay [4], greater than 10000 nM; in assay [5], 9680 nM.

As for `O=C(Nc1ccc(-c2ccc(S(=O)(=O)N[C@H](Cc3ccccc3)C(=O)O)s2)cc1)c1ccc2ccccc2c1` [VI-51], the IC50 in assay [1] is 22.2 nM; in assay [2], greater than 10000 nM; in assay [3] it was greater than 10000 nM; in assay [4], 292 nM; in assay [5], greater than 10000 nM.

Turning to `CC(C)C[C@H](NS(=O)(=O)c1ccc(-c2ccc(C#Cc3ccc4ccccc4c3)cc2)cc1)C(=O)O` [III-7], the IC50 is 4.32 nM in assay [1]; 13.1 nM in assay [2]; greater than 10000 nM in assay [3]; 327 nM in assay [4]; 20.2 nM in assay [5].

Consider `COc1ccc2cc(C#Cc3ccc(-c4ccc(S(=O)(=O)N[C@@H](CO)C(=O)O)cc4)cc3)ccc2c1` [III-45], for which the half-maximal inhibitory concentration (IC50) in assay [1] is 19.3 nM; in assay [2], greater than 10000 nM; in assay [3], greater than 10000 nM; in assay [4], greater than 10000 nM; in assay [5], greater than 10000 nM.

Consider `COc1cccc(C(=O)Nc2ccc(-c3ccc(S(=O)(=O)N[C@H](Cc4ccccc4)C(=O)O)cc3)cc2)c1` [VI-5], for which the concentration for half-maximal inhibition (IC50) in assay [1] is 50.1 nM; in assay [2], 623 nM; in assay [3] it was greater than 10000 nM; in assay [4] it was 660 nM; in assay [5], 1230 nM.

For the compound `CSCC[C@H](NS(=O)(=O)c1ccc(-c2ccc(NC(=O)c3ccc4ccccc4c3)cc2)cc1)C(=O)O` [VI-44], the IC50 in assay [1] is 48.4 nM; in assay [2] it was 252 nM; in assay [3], greater than 10000 nM; in assay [4] it was 502 nM; in assay [5] it was 162 nM.

Consider `C[C@H](NS(=O)(=O)c1ccc(-c2ccc(C#Cc3ccc4ccccc4c3)cc2)cc1)C(=O)O` [III-3], for which the IC50 in assay [1] is 7.86 nM; in assay [2] it was 56.3 nM; in assay [3] it was greater than 10000 nM; in assay [4], greater than 10000 nM; in assay [5], 70.9 nM.

For the compound `COc1ccc2cc(C#Cc3ccc(-c4ccc(S(=O)(=O)N[C@@H](CCSC)C(=O)O)cc4)cc3)ccc2c1` [III-25], the half-inhibitory concentration (IC50) is 24.2 nM in assay [1]; 89.3 nM in assay [2]; greater than 10000 nM in assay [3]; 2850 nM in assay [4]; 117 nM in assay [5].
